Results as given in US20020086278A1, “CHROMOGENIC MEDIA CONTAINING BLOOD OR HEMIN” (priority 1999, published 2002).
Several values for one entry are separate records, joined by “and”; a condition that tells them apart may be missing. Equal entries are not always repeated. Structures can show the parent of a compound that is named as a salt.

Columns and labels:
Escherichia coli 25922 = assay: Example 1: growth and colony color on plates surface-spread with chromogen; format: cell-based; conditions: E. coli 25922
[1] = system: E. coli (non-O157) (esco); format: cell-based
E. coli 25922 = assay: Example 2: effect of incubation conditions on colony color formation; format: cell-based, Escherichia coli
[2] = system: Streptococcus agalactiae (stag); assay: Example 3: colony color on chromogenic TSA II with 5% sheep blood (chromogen in medium); format: cell-based
[3] = system: Citrobacter freundii (cifr); assay: as above; format: cell-based; conditions: for Colony Color: CO2, 21 h
[4] = system: Entercoccus faecalis (enfa); assay: as above; format: cell-based; conditions: for Colony Color: 21 h
[5] = system: Gardnerella vaginalis 14019; assay: Example 1: growth and colony color on plates surface-spread with chromogen; format: cell-based; conditions: Summary of Table I; G. vaginalis 14014
S. pneumoniae (stpn) = assay: Example 3: colony color on chromogenic TSA II with 5% sheep blood (chromogen in medium); format: cell-based
N. gonorrhoeae 35201 = assay: Example 1: growth and colony color on plates surface-spread with chromogen; format: cell-based; conditions: Summary of Table I; N. gonorrhoeae 35201
[6] = system: Staphylococcus aureus (stau); assay: Example 3: colony color on chromogenic TSA II with 5% sheep blood (chromogen in medium); format: cell-based
Candida albicans (caal) = assay: as above; format: cell-based; conditions: for Colony Color: caal 10231, 24 h
[7] = system: Streptococcus pneumoniae 6303; assay: Example 1: growth and colony color on plates surface-spread with chromogen; format: cell-based
S pyogenes (stpy) = assay: Example 3: colony color on chromogenic TSA II with 5% sheep blood (chromogen in medium); format: cell-based; conditions: for Colony Color: 21 h
E. faecium (enfu) = assay: as above; format: cell-based; conditions: for Colony Color: enfu 49032, 21 h
[8] = Precipitate of chromogen on pre-plated media; format: physicochemical; conditions: 50 μl DMSO solution on pre-plated media
Description: 50 μl of each chromogen solution was added to the surface of each of the following pre-plated media (one chromogen solution per plate):
The solution was dispersed using a spreader and allowed to dry 3-4 hours in a hood.

[9] = system: Serratia marcescens (sema); assay: Example 3: colony color on chromogenic TSA II with 5% sheep blood (chromogen in medium); format: cell-based
[10] = system: Branhamella catarrhalis 25238; assay: Example 1: growth and colony color on plates surface-spread with chromogen; format: cell-based
Salmonella spp. (sasp) = format: cell-based
[11] = system: Pseudomonas aeruginosa (psae); assay: Example 3: colony color on chromogenic TSA II with 5% sheep blood (chromogen in medium); format: cell-based; conditions: for Colony Color: CO2, 21 h
[12] = system: Branhamella catarrhalis (brca); assay: as above; format: cell-based; conditions: brca 25238; CO2; 21 h
S. milleri (stmi) = assay: as above; format: cell-based
[13] = system: Staphylococcus Coag Neg (step); assay: as above; format: cell-based; conditions: 21 h
S. agalactiae 12386 = assay: Example 2: effect of incubation conditions on colony color formation; format: cell-based, Streptococcus agalactiae
[14] = chromogenic TSA II with 5% Sheep Blood, 0.1 g/l, 2 strains tested
[15] = chromogenic TSA II with 5% Sheep Blood, 0.1 g/l, 6 strains tested
[16] = chromogenic TSA II with 5% Sheep Blood, 0.1 g/l
[17] = chromogenic TSA II with 5% Sheep Blood, 0.1 g/l, 1 strain tested

O=P(O)(O)Oc1c[nH]c2cc(Cl)c(Br)cc12 [Mag-Phos, 5-Br-6-Cl-3-indolyl-phosphate, p-touidine salt]
Color (Escherichia coli 25922; Choc II): purple
Substrates Producing Color (Escherichia coli 25922; Summary of Table I): Mag-phos
Color (Escherichia coli 25922; TSA II 5SB): purple
Color (Escherichia coli 25922; TSA Plain): purple
Colony Color [1]: lp and lgb and 0
Colony Color (E. coli 25922): purple (m)
Colony Color [2]: lp
Colony Color (Summary) [2]: +
Colony Color (Summary) [3, 14]: 0
Colony Color ([3]; cifr 8454): 0
Colony Color ([3]; cifr 33128): 0
Colony Color (Summary) [4, 15]: +
Colony Color ([4]; enfa 597, CO2): lp
Colony Color ([4]; enfa 597, air): lp
Colony Color ([4]; enfa 10741, CO2): lp
Colony Color ([4]; enfa 12953, CO2): lp
Colony Color ([4]; enfa 14506, CO2): lp
Colony Color ([4]; enfa 29212, CO2): lp
Substrates Producing Growth Inhibition [5]: Mag-phos
Growth vs. control (S. pneumoniae (stpn); [16]): <growth
Colony Color (Summary) (S. pneumoniae (stpn); [15]): 0,
Colony Color (S. pneumoniae (stpn); stpn 1259, CO2, 21 h): 0
Colony Color (S. pneumoniae (stpn); stpn 1260, CO2, 21 h): 0
Colony Color (S. pneumoniae (stpn); stpn 1628, CO2, 21 h): 0
Colony Color (S. pneumoniae (stpn); stpn 6303, CO2, 24 h): 0
Colony Color (S. pneumoniae (stpn); stpn 6303, air, 24 h): db
Colony Color (S. pneumoniae (stpn); stpn 6305, CO2, 24 h): 0
Colony Color (S. pneumoniae (stpn); stpn 6305, air, 24 h): 0
Substrates Producing Growth Inhibition (N. gonorrhoeae 35201): Mag-phos
Colony Color ([6]; stau 1006, CO2, 21 h): 0
Colony Color ([6]; stau 1007, CO2, 21 h): 0
Colony Color ([6]; stau 1008, CO2, 21 h): vlp
Colony Color ([6]; stau 1009, CO2, 21 h): vlp
Colony Color ([6]; stau 25923, CO2, 24 h): lp
Colony Color ([6]; stau 25923, air, 24 h): lp
Colony Color (Candida albicans (caal); CO2): 0
Colony Color (Candida albicans (caal); air): 0
Colony Color (Summary) (Candida albicans (caal); [14]): 0
Substrates Producing Growth Inhibition ([7]; Summary of Table I, S. pneumoniae 6303): Mag-phos
Growth ([7]; TSA II 5SB, S. pneu: 6303): <
Growth vs. control (S pyogenes (stpy); [16]): <grth
Colony Color (S pyogenes (stpy); stpy 1027, CO2): vlp
Colony Color (S pyogenes (stpy); stpy 1028, CO2): vlp
Colony Color (S pyogenes (stpy); stpy 1029, CO2): vlp
Colony Color (S pyogenes (stpy); stpy 1030, CO2): vlp
Colony Color (S pyogenes (stpy); stpy 19615, CO2): lp
Colony Color (S pyogenes (stpy); stpy 19615, air): lp
Colony Color (S pyogenes (stpy); stpy 49117, CO2): lp
Colony Color (S pyogenes (stpy); stpy 51339, CO2): lp
Colony Color (Summary) (E. faecium (enfu); [17]): +
Colony Color (E. faecium (enfu); CO2): vlgp
Colony Color (E. faecium (enfu); air): lgp
Precipitate when spread / placed on the plated media [8]: somewhat insoluble
Colony Color (Summary) [9, 17]: 0
Colony Color ([9]; sema 13880, CO2, 21 h): 0
Substrates Producing Growth Inhibition ([10]; Summary of Table I, B. catarrhalis 25238): Mag-Phos
Growth ([10]; TSA II 5SB, B. catt 25258): <<
Colony Color (Summary) (Salmonella spp. (sasp)): +
Colony Color (Summary) ([11]; chromogenic TSA II with 5% Sheep Blood, 0.1 g/l, 3 strains tested): 0
Colony Color ([11]; psae 9027): 0
Colony Color ([11]; psae 15442): 0
Colony Color ([11]; psae 33607): 0
Colony Color [12]: 0
Growth vs. control (S. milleri (stmi); [16]): no growth
Colony Color (S. milleri (stmi); stmi 6249, air, 21 h): 0
Colony Color ([13]; step 12228, CO2): 0
Colony Color ([13]; step 12228, air): lp
Colony Color ([13]; step cdc1, CO2): lp
Colony Color ([13]; step cdc1, air): lp
Colony Color ([13]; step cdc2, CO2): 0
Colony Color ([13]; step cdc2, air): 0
Colony Color ([13]; step cdc3, CO2): 0
Colony Color ([13]; step cdc3, air): 0
Colony Color ([13]; step cdc4, CO2): lp
Colony Color ([13]; step cdc4, air): lp
Colony Color (S. agalactiae 12386): purple (m)
